Twelve compounds from US20230129359A1, “MUSCARINIC RECEPTOR 4 ANTAGONISTS AND METHODS OF USE” (Neurocrine Biosciences, Inc., priority 2020, published 2023) can be followed below.

For the assay, the target named is T1, human M4 receptor (Homo sapiens, UniProt P08173).
T1 construct: expressed in transfected cells; host or cells: CHO cells
T1 sequence (P08173 1-479): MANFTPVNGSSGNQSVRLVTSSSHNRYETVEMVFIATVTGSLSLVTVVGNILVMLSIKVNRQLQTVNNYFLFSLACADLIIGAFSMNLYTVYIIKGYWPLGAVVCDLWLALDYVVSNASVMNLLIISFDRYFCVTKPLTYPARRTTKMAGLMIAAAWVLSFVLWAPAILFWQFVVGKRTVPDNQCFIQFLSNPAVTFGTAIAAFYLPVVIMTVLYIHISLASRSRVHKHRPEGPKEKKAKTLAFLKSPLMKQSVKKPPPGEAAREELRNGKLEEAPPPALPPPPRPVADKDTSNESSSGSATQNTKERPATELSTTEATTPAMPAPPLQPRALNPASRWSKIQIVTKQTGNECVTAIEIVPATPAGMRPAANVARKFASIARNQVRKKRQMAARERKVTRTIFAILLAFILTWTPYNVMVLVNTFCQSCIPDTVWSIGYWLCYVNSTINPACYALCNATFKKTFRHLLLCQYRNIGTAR
In words: Radioligand ([3H]N-methylscopolamine) binding assay, membranes from CHO cells expressing human M4 receptor. The note with it: Ki against human M4 receptor; membranes from CHO cells; tritiated N-methylscopolamine 1.5 nM; read-out: K. The method, boiled down:
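Competition binding used CHO-cell membranes expressing human M4 with 1.5 nM [3H]N-methylscopolamine and twelve compound concentrations ([…]). Incubation was 90 minutes at 37 °C in 50 mM HEPES, 100 mM NaCl, 5 mM MgCl2, 1 mM EDTA, pH 7.4. Bound ligand was collected by filtration onto PEI-treated glass fibre for Ki.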
As for `C[C@@H]1CN(c2ncc(C(F)(F)F)cn2)[C@@H](C)CN1C(=O)OC1CC2(C1)CN(Cc1ccc(S(C)(=O)=O)cc1)C2` [Compound 501, 2-[(4-methanesulfonylphenyl)methyl]-2-azaspiro[3.3]heptan-6-yl (2R,56S)-2,5-dimethyl-4-[5-(trifluoromethyl)pyrimidin-2-yl]piperazine-1-carboxylate], the Ki was in the range of 100 to 1000 nM.
With `C[C@@H]1CN(c2cnc(C(F)(F)F)cn2)[C@@H](C)CN1C(=O)OC1CC2(C1)CN(Cc1ccc(S(C)(=O)=O)cc1)C2` [Compound 503, 2-[(4-methanesulfonylphenyl)methyl]-2-azaspiro[3.3]heptan-6-yl (2R,5S)-2,5-dimethyl-4-[5-(trifluoromethyl)pyrazin-2-yl]piperazine-1-carboxylate], the Ki is 100 to 1000 nM.
Consider `CCCc1cnc(N2C[C@@H](C)N(C(=O)OC3CC4(C3)CN(Cc3ccccc3)C4)[C@@H](C)C2)nc1` [Compound 504, 2-benzyl-2-azaspiro[3.3]heptan-6-yl (2R,6S)-2,6-dimethyl-4-(5-propylpyrimidin-2-yl)piperazine-1-carboxylate], for which the Ki is under 10 nM.
In the case of `CC(C)c1cnc(N2C[C@@H](C)N(C(=O)OC3CC4(C3)CN(Cc3ccccc3)C4)[C@@H](C)C2)nc1` [Compound 505, 2-benzyl-2-azaspiro[3.3]heptan-6-yl (2R,6S)-2,6-dimethyl-4-[5-(rpopan-2-yl)pyrimidin-2-yl]piperazine-1-carboxylate], the Ki is under 10 nM.
Then `C[C@@H]1CN(c2ncc(C3CC3)cn2)C[C@H](C)N1C(=O)OC1CC2(C1)CN(Cc1ccccc1)C2` [Compound 506, 2-benzyl-2-azaspiro[3.3]heptan-6-yl (2R,6S)-4-(5-cyclopropylpyrimidin-2-yl)-2,6-dimethylpiperazine-1-carboxylate], with under 10 nM; and `C#Cc1cnc(N2C[C@@H](C)N(C(=O)OC3CC4(C3)CN(Cc3ccccc3)C4)[C@@H](C)C2)nc1` [Compound 508, 2-benzyl-2-azaspiro[3.3]heptan-6-yl (2R,6S)-4-(5-ethynylpyrimidin-2-yl)-2,6-dimethylpiperazine-1-carboxylate], with 10 to 100 nM.
The same measure for `C[C@@H]1CN(c2ccc(C(F)(F)F)cc2)C[C@H](C)N1C(=O)OC1CC2(C1)CN(Cc1ccccc1)C2` [Compound 514, 2-benzyl-2-azaspiro[3.3]heptan-6-yl (2R,6S)-2,6-dimethyl-4-[4-(trifluoromethyl)phenyl]pipera-zine-1-carboxylate]: under 10 nM; for `COc1ccc(N2C[C@@H](C)N(C(=O)OC3CC4(C3)CN(Cc3ccccc3)C4)[C@@H](C)C2)cc1` [Compound 524, 2-benzyl-2-azaspiro[3.3]heptan-6-yl (2R,6S)-4-(4-methoxyphenyl)-2,6-dimethylpiperazine-1-carboxylate]: 100 to 1000 nM.
The same measure for `Cc1cc(N2C[C@@H](C)N(C(=O)OC3CC4(C3)CN(Cc3ccccc3)C4)[C@@H](C)C2)ccc1F` [Compound 525, 2-benzyl-2-azaspiro[3.3]heptan-6-yl (2R,6S)-4-(4-fluoro-3-methylphenyl)-2,6-dimethylpiperazine-1-carboxylate]: 10 to 100 nM.
Regarding `COc1cc(N2C[C@@H](C)N(C(=O)OC3CC4(C3)CN(Cc3ccccc3)C4)[C@@H](C)C2)ccc1C#N` [Compound 526, 2-benzyl-2-azaspiro[3.3]heptan-6-yl (2R,6S)-4-(4-cyano-3-methoxyphenyl)-2,6-dimethylpiperazine-1-carboxylate], the Ki lay in the range of 100 to 1000 nM.
Regarding `C[C@@H]1CN(c2ccc(C(F)(F)F)cc2)[C@@H](C)CN1C(=O)OC1CC2(C1)CN(Cc1ccccc1)C2` [Compound 527, 2-benzyl-2-azaspiro[3.3]heptan-6-yl (2R,5S)-2,5-dimethyl-4-[4-(trifluoromethyl)phenyl]pipera-zine-1-carboxylate], the Ki was under 10 nM.
Then `C[C@@H]1CN(c2ccc(C(F)(F)F)cc2)CCN1C(=O)OC1CC2(C1)CN(Cc1ccccc1)C2` [Compound 528, 2-benzyl-2-azaspiro[3.3]heptan-6-yl (2R)-2-methyl-4-[4-(trifluoromethyl)phenyl]pipera-zine-1-carboxylate], with 10 to 100 nM.
